In US20230340011A1 (Asteroid Therapeutics, priority 2022, published 2023):

What follows are compounds tested against SREBP-2 (Homo sapiens (Human), UniProt Q12772) (assay: In vitro assay SREBP-2: PathHunter U2OS SREBP-2 Nuclear Translocation Cell Line, U18666A-stimulated). Conditions: not given.
Type: cell-based
C[C@H](CCC(=O)N1CCN(C(=O)OC2COC2)CC1)[C@H]1CC[C@H]2[C@@H]3CC=C4C[C@@H](O)CC[C@]4(C)[C@H]3CC[C@]12C [Example 425, oxetan-3-yl4-((R)-4-((3S,8S,9S,10R,13R,14S,17R)-3-hydroxy-10,13-dimethyl-2,3,4,7,8,9,10,11,12,13,14,15,16,17-tetradecahydro-1H-cyclopenta[a]phenanthren-17-yl)pentanoyl)piperazine-1-carboxylate] gave an IC50 of under 250 nM.

Same assay, conditions: PathHunter U2OS SREBP-2 nuclear translocation cells, U18666A 10 μM, overnight (16 hours)
C#CC1(O)CCN(C(=O)CC[C@@H](C)[C@H]2CC[C@H]3[C@@H]4CC=C5C[C@@H](O)CC[C@]5(C)[C@H]4CC[C@]23C)CC1 [Example 147, (R)-1-(4-ethynyl-4-hydroxypiperidin-1-yl)-4-((3S,8S,9S,10R,13R,14S,17R)-3-hydroxy-10,13-dimethyl-2,3,4,7,8,9,10,11,12,13,14,15,16,17-tetradecahydro-1H-cyclopenta[a]phenanthren-17-yl)pentan-1-one] showed an IC50 of under 250 nM.
Work on Cc1ccnc(OC[C@@H](C)[C@H]2CC[C@H]3[C@@H]4CC=C5C[C@@H](O)CC[C@]5(C)[C@H]4CC[C@]23C)c1 [Example 262, (1R,3aS,3bS,7S,9aR,9bS,11aS)-9a,11a-dimethyl-1-[(2S)-1-[(4-methylpyridin-2-yl)oxy]propan-2-yl]-1H,2H,3H,3aH,3bH,4H,6H,7H,8H,9H,9aH,9bH,10H,11H,11aH-cyclopenta[a]phenanthren-7-ol] yielded an IC50 of under 250 nM.
C[C@H](CCC(=O)N1CCC(C(NC(=O)C(C)(C)O)C(F)(F)F)CC1)[C@H]1CC[C@H]2[C@@H]3CC=C4C[C@@H](O)CC[C@]4(C)[C@H]3CC[C@]12C (stereo partly drawn) [Example 479, 2-hydroxy-2-methyl-N-(2,2,2-trifluoro-1-(1-((R)-4-((3S,8S,9S,10R,13R,14S,17R)-3-hydroxy-10,13-dimethyl-2,3,4,7,8,9,10,11,12,13,14,15,16,17-tetradecahydro-1H-cyclopenta[a]phenanthren-17-yl)pentanoyl)piperidin-4-yl)ethyl)propanamide] showed an IC50 of under 250 nM.
For Cc1ccc(OC[C@@H](C)[C@H]2CC[C@H]3[C@@H]4CC=C5C[C@@H](O)CC[C@]5(C)[C@H]4CC[C@]23C)nc1 [Example 441, (3S,8S,9S,10R,13S,14S,17R)-10,13-dimethyl-17-((S)-1-((5-methylpyridin-2-yl)oxy)propan-2-yl)-2,3,4,7,8,9,10,11,12,13,14,15,16,17-tetradecahydro-1H-cyclopenta[a]phenanthren-3-ol], the IC50 was 250 to 1000 nM.
Work on Cc1ccncc1O[C@@H](C)[C@H]1CC[C@H]2[C@@H]3CC=C4C[C@@H](O)CC[C@]4(C)[C@H]3CC[C@]12C [Example 433, (3S,8S,9S,10R,13S,14S,17S)-10,13-dimethyl-17-((S)-1-((4-methylpyridin-3-yl)oxy)ethyl)-2,3,4,7,8,9,10,11,12,13,14,15,16,17-tetradecahydro-1H-cyclopenta[a]phenanthren-3-ol] yielded an IC50 of 250 to 1000 nM.
Cc1cncc(O[C@@H](C)[C@H]2CC[C@H]3[C@@H]4CC=C5C[C@@H](O)CC[C@]5(C)[C@H]4CC[C@]23C)c1 [Example 432, (3S,8S,9S,10R,13S,14S,17S)-10,13-dimethyl-17-((S)-1-((5-methylpyridin-3-yl)oxy)ethyl)-2,3,4,7,8,9,10,11,12,13,14,15,16,17-tetradecahydro-1H-cyclopenta[a]phenanthren-3-ol] showed an IC50 of under 250 nM.
For C[C@H](CCC(=O)N1CCN(c2ncccn2)CC1)[C@H]1CC[C@H]2[C@@H]3CC=C4C[C@@H](O)CC[C@]4(C)[C@H]3CC[C@]12C [Example 397, (R)-4-((3S,8S,9S,10R,13R,14S,17R)-3-hydroxy-10,13-dimethyl-2,3,4,7,8,9,10,11,12,13,14,15,16,17-tetradecahydro-1H-cyclopenta[a]phenanthren-17-yl)-1-(4-(pyrimidin-2-yl)piperazin-1-yl)pentan-1-one], the IC50 was under 250 nM.
